# Values of other authors in patent US20210060105A1, “GINKGO BILOBA EXTRACT COMPOSITE FORMULATION AND USE OF THE SAME” (priority 2019, published 2021).
# How the values were obtained:
# [1] = increased from the original 49.7±3.6 mg/dL
structure (smiles),measurement,setting,value
"CC1=C(/C=C/C(C)=C/C=C/C(C)=C/C=C/C=C(C)/C=C/C=C(C)/C=C/C2=C(C)C(=O)[C@@H](O)CC2(C)C)C(C)(C)C[C@H](O)C1=O [Astaxanthin, astaxanthin]",antioxidant ability relative to vitamin E,compared with vitamin E,550 times
same,antioxidant ability relative to β-carotene,compared with β-carotene,10 times
same,HDL in vivo after astaxanthin,[1],66.5 ± 5.1 mg/dL
